Test results published in US5780221A, “Identification of enantiomeric ligands” (Whitehead Institute for Biomedical Research, priority 1996, dated 1998).
Ends that are not written are not given here.

Experiments:
SH3 domain = target: T1, SH3 domain (Gallus gallus, UniProt P00523); test: Direct tryptophan fluorescence spectroscopy titration; format: binding, chicken; details: 1 μM SH3, 15 mM NaCl and 10 mM NaHPO4, pH 7.2; Scatchard analysis
T1 construct: Residues 81 to 140 of chicken c-SRC were cloned; modified TrpLE leader (Met to Leu, Cys to Ala) (N, cleaved yes); His9 within the C-terminal region of the TrpLE leader (N, cleaved yes); made in house; host or cells: E. coli in M9 medium with (15NH4)2SO4, plasmid pMMHb-SRC SH3
Method: (§1) The affinity of Pep-DI for the L-SH3 domain was determined by a competitive enzyme-linked immunosorbent assay (ELISA). Single wells of a 96-well plate were coated with 5 μg of the L-SH3 domain (Scott, J. K. and Smith, G. P., Science, 249:386 (1990); Smith, G. P. and Scott, J. K., Methods in Enzymol., 217:228 (1993)). Wells were blocked with BSA, and phages expressing the L-SH3-binding insert […] (SEQ ID NO: 10) were allowed to bind in 10 mM NaHPO4, pH 7.2, 15 mM NaCl, 1 mg/ml of BSA, 0.05% NaN3, and 0.1% Tween 20, in the presence of increasing amounts of competitor peptide. Phage binding was quantified with a rabbit M13 antibody (Stratagene) and alkaline phosphatase-labeled goat antibody to rabbit (Pierce), with a fresh solution of p-nitrophenol phosphate as substrate. Absorbance at 410 nm was determined with a Dynatech micotiter plate reader. […] Relative values for Kd were obtained as described (Minor, D. L., Jr. and Kim, P. S., Nature, 367:660 (1994)). […] A solution of the peptide was titrated into 1 μM SH3 solution in 15 mM NaCl and 10 mM NaHPO4, pH 7.2. Tryptophan fluorescence was induced by excitation at 295 nm (5 nm slit width), and emission was measured at 339 nm (10 nm slit width), with a Hitachi F-4500 fluorescence spectrometer. The dissociation constant was determined by Scatchard analysis.

(L)-SH3 = target: T2, (L)-SH3 (Gallus gallus, UniProt P00523); test: Retention of bacterially expressed (L)-SH3 on peptide affinity column; format: binding; details: residues 81-140 of chicken c-Src
T2 construct: E. coli BL21(DE3) pLysS, pMMHb TrpLE-His9 fusion, cleaved with CNBr
Method: The L- and D-enantiomers of the chicken c-SRC domain were prepared by bacterial expression and chemical synthesis, respectively. The biotinylated, synthetic, 60-amino acid D-SH3 domain was refolded and purified by affinity chromatography, with a D-amino acid version of a known peptide ligand for the SH3 domain (Yu, H., et al., Cell, 76:933 (1994)).
The all D amino acid SH3 domain, sequence […] S-COOH-terminus (SEQ ID No: 1), residues 81-140 of chicken c-SRC, was synthesized on HMP resin (ABI/Perkin Elmer) with an ABI 431A peptide synthesizer and ABI fastmoc cycles (Fmoc chemistry with HBTU activation and capping with acetic anhydride). Protected D-amino acids were obtained from Bachem California., Bachem Bioscience, Advanced Chemtech, and Novabiochem. For D-Ile and D-Thr, the side chain enantiomers were used, in which the chirality of the side chain is also inverted relative to naturally occurring L-Thr and L-Ile. After completion of the synthesis, the NH2 -terminus of the peptide was modified with NHS-LC-biotin II (Pierce). After cleavage, the peptide was lyophilized, dissolved in 6 M guanidine HCl, pH 6.0, and dialyzed against 100 mM NaHPO4 and 100 mM NaCl, pH 6.0, with the use of dialysis tubing with a molecular cutoff of 3,500 daltons (D) (Spectra/Por). […]

L-SH3 domain = target: T3, L-SH3 domain (Gallus gallus, UniProt P00523); test: Competitive enzyme-linked immunosorbent assay (ELISA) for L-SH3 binding; parameters: species or system chicken; details: L- and D-amino acid ligands
T3 construct: Residues 81 to 140 of chicken c-SRC were cloned; modified TrpLE leader (Met to Leu, Cys to Ala) (N, cleaved yes); His9 within the C-terminal region of the TrpLE leader (N, cleaved yes); made in house; host or cells: Escherichia coli BL21(DE3) pLysS, plasmid pMMHb-SRC SH3
Method: as §1

| Substance | Kd (SH3 domain) | retention of bacterially expressed (L)-SH3 on peptide column ((L)-SH3) | competition with the L-amino acid ligand (L-SH3 domain) |
| --- | --- | --- | --- |
| YGGRELPPLPRF-NH2 | 6 µM | can be retained on the (L)-enantiomer |  |
| (D)-RCLSGLRLGLVPCA [Pep-D1] |  |  | competition observed for the binding of these two ligands |
